Source: patent US12447167B2, “GM-CSF-producing t-cell control agent and Th1/Th2 immune balance regulator” (National Center of Neurology and Psychiatry, priority 2014, dated 2025)

Tested on: GM-CSF-producing CD8-positive T-cells
Assay: GM-CSF-producing CD8-positive T-cells in PBMCs of normal subjects after single oral dose (FACS)
Format: in vivo, human
Method: A single dose of compound 31, which is a synthetic glycolipid of the present invention, described in the first aspect, i.e., (2S,3S,4R)-1-O-(α-D-galactosyl)-2-(N-tetracosanoylamino)-1,3,4-nonanetriol represented by the following formula (III), was orally administered to each of subjects of 4 cohorts (A, B, C, and D cohorts) each consisting of 3 normal subjects shown in Table 1 above after obtainment of informed consent.
The dose was set to 0.3 mg per person for A cohort, 1 mg per person for B cohort, 3 mg per person for C cohort, and 10 mg per person for D cohort.
Subsequently, T-cell subfractions were prepared from the peripheral blood of each subject by using the density gradient centrifugation method. First, a total of 20 mL of blood was collected from the vein of each subject 24 hours (1st day), 48 hours (2nd day), 72 hours (3rd day), and 168 hours (7th day) after the administration of compound 31 by using two 10-mL heparin sodium-containing vacuum blood collection tubes. For a control, 20 mL of blood was similarly collected from the vein of each subject one day before the administration of compound 31.
Next, 4 mL of Ficoll-Paque Plus (GE Healthcare Biosciences Corp.) was placed in each of four 15-mL conical tubes, and 10 mL of blood diluted twice with phosphate buffered saline (PBS) was gently layered thereon. Then, density gradient centrifugation was performed by centrifugation at 1800 rpm at ordinary temperature for 30 minutes. After the centrifugation, a supernatant containing plasma and platelet was discarded, and lymphocytes present at the boundary layer between the supernatant layer and the Ficoll-Paque Plus layer were recovered into a fresh 50-mL conical tube. The 50-mL conical tube was filled by adding PBS thereto, followed by centrifugation at 1800 rpm at ordinary temperature for 5 minutes. […] After a supernatant was removed by suction again, a single cell suspension was prepared by adding 1 mL of AIM-V medium (Life Technologies Corp.), and then, the number of cells was measured with a counting chamber. […]

Compound: CCCCCCCCCCCCCCCCCCCCCCCC(=O)NC(COC1OC(CO)C(O)C(O)C1O)[C@H](O)C(O)CCCCC (stereo in doubt) [compound 31, (2S,3S,4R)-1-O-(α-D-galactosyl)-2-(N-tetracosanoylamino)-1,3,4-nonanetriol]
- suppressive effects on CD8-positive T-cells (A cohort (0.3 mg), 7 days after administration): strengthened
- growth of CD8-positive T-cells (C cohort (3 mg), 1 day after administration): transiently promoted
- proportion of CD8-positive T-cells (GM-CSF-producing) in PBMCs (single oral dose, all cohorts, after administration vs day-1): decreased
